“Also recorded” adds a separate entry of the source.
Key:
[1] = system: DU-145; experiment: MTT assay; format: cell-based; conditions: Homo sapiens; Parental cell line DU-145, MTT, 72 h
[2] = system: M14; experiment: NCI60 assay; format: cell-based; conditions: Homo sapiens; Melanoma, M14, 48 h
Experimental: (§1) CYB-L10 was tested using the protocols by the NCI, which has been described previously. […] The overall antiproliferative potential is quantified as a mean-graph midpoint (MGM). […] It was selected and submitted to National Cancer Institute (NCI, USA) for a developmental therapeutics assay against the 60 clinical tumor cell lines representing nine tissue types (NCI60)[23–25]. The tumor cells were incubated with CYB-L10 for 48 h and stained with sulphorhodamine B dye. Cell growth inhibition (GI50) was calculated relative to the control without compound.

[3] = system: HCT116; experiment: NCI60 assay; format: cell-based; conditions: Homo sapiens, HCT-116, Colon cancer, HCT116, 48 h
Experimental: as §1

[4] = system: KM12; experiment: NCI60 assay; format: cell-based; conditions: Homo sapiens; Colon cancer, KM12, 48 h
Experimental: as §1

[5] = system: OVCAR-4; experiment: NCI60 assay; format: cell-based; conditions: Homo sapiens; Ovarian cancer, OVCAR-4, 48 h
Experimental: as §1

[6] = system: HS 578T; experiment: NCI60 assay; format: cell-based; conditions: Homo sapiens, Breast cancer, 48 h
Experimental: as §1

[7] = system: OVCAR-8; experiment: NCI60 assay; format: cell-based; conditions: Homo sapiens; Ovarian cancer, OVCAR-8, 48 h
Experimental: as §1

[8] = system: NCI-H460; experiment: NCI60 assay; format: cell-based; conditions: Homo sapiens; Non-small cell lung cancer, NCI-H460, 48 h
Experimental: as §1

[9] = system: MALME-3M; experiment: NCI60 assay; format: cell-based; conditions: Homo sapiens, Melanoma, 48 h
Experimental: as §1

[10] = system: HOP-62; experiment: NCI60 assay; format: cell-based; conditions: Homo sapiens; Non-small cell lung cancer, HOP-62, 48 h
Experimental: as §1

[11] = system: MDA-MB-435; experiment: NCI60 assay; format: cell-based; conditions: Homo sapiens; Melanoma, MDA-MB-435, 48 h
Experimental: as §1

[12] = system: SK-MEL-5; experiment: NCI60 assay; format: cell-based; conditions: Homo sapiens; Melanoma, SK-MEL-5, 48 h
Experimental: as §1

[13] = system: UACC-62; experiment: NCI60 assay; format: cell-based; conditions: Homo sapiens; Melanoma, UACC-62, 48 h
Experimental: as §1

[14] = system: A498; experiment: NCI60 assay; format: cell-based; conditions: Homo sapiens; Renal cancer, A498, 48 h
Experimental: as §1

[15] = system: T-47D; experiment: NCI60 assay; format: cell-based; conditions: Homo sapiens, T47D, Breast cancer, 48 h
Experimental: as §1

[16] = system: SNB-19; experiment: NCI60 assay; format: cell-based; conditions: Homo sapiens; CNS cancer, SNB-19, 48 h
Experimental: as §1

[17] = system: COLO 205; experiment: NCI60 assay; format: cell-based; conditions: Homo sapiens; Colon cancer, COLO 205, 48 h
Experimental: as §1

[18] = system: SK-OV-3; experiment: NCI60 assay; format: cell-based; conditions: Homo sapiens; Ovarian cancer, SK-OV-3, 48 h
Experimental: as §1

[19] = system: TK-10; experiment: NCI60 assay; format: cell-based; conditions: Homo sapiens; Renal cancer, TK-10, 48 h
Experimental: as §1

[20] = system: MOLT-4; experiment: NCI60 assay; format: cell-based; conditions: Homo sapiens; Leukemia, MOLT-4, 48 h
Experimental: as §1

[21] = system: NCI-H23; experiment: NCI60 assay; format: cell-based; conditions: Homo sapiens; Non-small cell lung cancer, NCI-H23, 48 h
Experimental: as §1

[22] = system: NCI-H322M; experiment: NCI60 assay; format: cell-based; conditions: Homo sapiens, Non-small cell lung cancer, 48 h
Experimental: as §1

[23] = system: K-562; experiment: NCI60 assay; format: cell-based; conditions: Homo sapiens, K562; Leukemia, K-562, 48 h
Experimental: as §1

[24] = system: LOX IMVI; experiment: NCI60 assay; format: cell-based; conditions: Homo sapiens, Melanoma, 48 h
Experimental: as §1

[25] = system: CCRF-CEM; experiment: NCI60 assay; format: cell-based; conditions: Homo sapiens, Leukemia, 48 h
Experimental: as §1

[26] = system: TOP2; experiment: TOP2-mediated relaxation assay; format: biochemical; conditions: 25 μM, relaxation of supercoiled pBR322 DNA
Experimental: Figure S1. TOP2-mediated relaxation assay. Lane 1, supercoiled pBR322 DNA alone; Lane 2, DNA
and enzyme; Lanes 3, DNA, enzyme and the positive control etoposide (VP16) at 25 μM; Lanes 4,
DNA, enzyme and CYB-L10 at 25 μM. R: relaxed DNA. Sc: supercoiled DNA.
(1 picture or pasted object on this page, not shown here)

[27] = system: HCT116-siTop1; experiment: MTT assay; format: cell-based; conditions: Homo sapiens; Resistant subline HCT116-siTop1, MTT, 72 h
[28] = system: 60 human clinical cancer cell lines (NCI60); experiment: NCI60 assay, mean-graph midpoint; format: cell-based; conditions: NCI60, 48 h
Experimental: as §1

[29] = system: HL-60 (TB); experiment: NCI60 assay; format: cell-based; conditions: Homo sapiens, Leukemia, 48 h
Experimental: The NCI60 (National Cancer Institute 60) tumor cell drug discovery panel was developed as a tool to assess the anticancer activity of compounds against a range of cell lines derived from nine cancer cell types, including hematological malignancies, lung, central nervous system, melanoma, colorectal, renal, breast, ovarian, and prostate[18]^,[23]^,[24]. CYB-L10 was tested using the protocols by the NCI, which has been described previously. […] The overall antiproliferative potential is quantified as a mean-graph midpoint (MGM).
It was selected and submitted to National Cancer Institute (NCI, USA) for a developmental therapeutics assay against the 60 clinical tumor cell lines representing nine tissue types (NCI60)[23–25]. The tumor cells were incubated with CYB-L10 for 48 h and stained with sulphorhodamine B dye. Cell growth inhibition (GI50) was calculated relative to the control without compound.

[30] = target: P-glycoprotein (Pgp) (Homo sapiens, UniProt P08183); experiment: Pgp substrate assessment in Pgp-overexpressing resistant sublines; conditions: from MCF-7/ADR and HepG2/ADR sublines with overexpressed Pgp
P-glycoprotein (Pgp), sequence (P08183 whole entry): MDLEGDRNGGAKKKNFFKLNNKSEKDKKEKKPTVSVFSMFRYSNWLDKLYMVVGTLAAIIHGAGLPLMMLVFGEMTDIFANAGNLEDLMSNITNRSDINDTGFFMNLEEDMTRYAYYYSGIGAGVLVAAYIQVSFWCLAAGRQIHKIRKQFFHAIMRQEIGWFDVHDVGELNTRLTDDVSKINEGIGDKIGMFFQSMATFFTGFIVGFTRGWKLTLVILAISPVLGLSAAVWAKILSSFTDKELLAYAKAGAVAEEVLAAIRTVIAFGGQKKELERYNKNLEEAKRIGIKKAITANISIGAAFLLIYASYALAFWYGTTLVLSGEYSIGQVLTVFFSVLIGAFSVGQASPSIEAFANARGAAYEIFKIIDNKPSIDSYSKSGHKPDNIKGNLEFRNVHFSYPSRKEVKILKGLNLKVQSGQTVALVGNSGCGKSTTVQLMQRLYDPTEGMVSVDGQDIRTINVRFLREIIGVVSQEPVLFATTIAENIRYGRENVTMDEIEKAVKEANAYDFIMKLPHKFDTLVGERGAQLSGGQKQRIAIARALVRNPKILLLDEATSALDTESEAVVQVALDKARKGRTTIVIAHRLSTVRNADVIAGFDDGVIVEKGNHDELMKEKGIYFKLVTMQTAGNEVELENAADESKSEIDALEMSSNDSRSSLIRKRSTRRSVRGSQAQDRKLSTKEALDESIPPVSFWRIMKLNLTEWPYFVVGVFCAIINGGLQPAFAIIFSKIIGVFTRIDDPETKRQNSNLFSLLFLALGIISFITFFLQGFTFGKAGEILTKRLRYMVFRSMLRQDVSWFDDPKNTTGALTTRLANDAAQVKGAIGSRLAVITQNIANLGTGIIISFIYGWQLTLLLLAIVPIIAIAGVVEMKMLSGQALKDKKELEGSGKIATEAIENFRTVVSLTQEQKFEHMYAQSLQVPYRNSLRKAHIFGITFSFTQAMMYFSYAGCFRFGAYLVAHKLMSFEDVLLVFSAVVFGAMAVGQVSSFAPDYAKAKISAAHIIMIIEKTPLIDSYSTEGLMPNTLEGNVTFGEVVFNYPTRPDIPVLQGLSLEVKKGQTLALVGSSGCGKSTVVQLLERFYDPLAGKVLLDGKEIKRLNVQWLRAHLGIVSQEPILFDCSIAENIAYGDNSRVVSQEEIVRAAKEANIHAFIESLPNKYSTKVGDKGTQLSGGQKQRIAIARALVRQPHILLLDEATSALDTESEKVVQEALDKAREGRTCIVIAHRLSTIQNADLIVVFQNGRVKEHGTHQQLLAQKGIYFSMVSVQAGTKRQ

[31] = system: RC0.1; experiment: MTT assay
[32] = system: HepG2/ADR; experiment: MTT assay; format: cell-based, human

`O=C1c2cccnc2C(=O)c2c1c(C(=O)OCCN1CCOCC1)c1ccccn21` [CYB-L10] gave a GI50 [1] of 16 ± 10 nM, a GI50 [2] of under 10 nM and a GI50 [3] of 41.7 nM. For the same molecule, the GI50 [4] was 168 nM, the GI50 [5] was 1220 nM and the GI50 [6] was 36.9 nM. It also gave a GI50 [7] of 28.1 nM, a GI50 [8] of under 10 nM and a GI50 [9] of 45 nM. The GI50 [10] was under 10 nM, the GI50 [11] was 64.6 nM and the GI50 [12] was 28.5 nM. The GI50 [13] was under 10 nM, the GI50 [14] was 34.3 nM and the GI50 [15] was 961 nM. The GI50 [16] was under 10 nM, the GI50 [17] was 137 nM and the GI50 [18] was under 10 nM. For the same molecule, the GI50 [19] was 361 nM, the GI50 [20] was 217 nM and the GI50 [21] was under 10 nM. The GI50 [22] was 97.7 nM, the GI50 [23] was 28.2 nM and the GI50 [24] was under 10 nM. The GI50 [25] was 379 nM, the “inhibition against TOP2” value [26] was “very weak inhibition” and the GI50 [27] was 190 ± 92 nM. For the same molecule, the “MGM (mean graph midpoint for growth inhibition of all human cancer cell lines)” value [28] was 0.050 µM, the GI50 [29] was 240 nM and the “substrate of the Pgp” value [30] was “not a substrate of the P-glycoprotein; also recorded: not to be a substrate of the Pgp”. The Resistance ratio ([31]; GI50 RC0.1 / GI50 DU-145) was 40.6, the GI50 ([31]; Homo sapiens, 72 h, read-out: GI50 ± SD) was 650 ± 10 nM and the Resistance ratio ([32]; GI50 HepG2/ADR / GI50 HepG2) was 11.4. It also gave a GI50 ([32]; Homo sapiens, Resistant subline HepG2/ADR, MTT, 72 h) of 740 ± 240 nM.
